Data as given in patent US20240033321A1, “PULSATIVE GNRH ADMINISTRATION FOR TREATING FOOD INTAKE RELATED DISORDERS” (INSTITUT NATIONAL DE LA SANTÉ ET DE LA RECHERCHE MÉDICALE, priority 2020, published 2024).

How the values were obtained:
[1] = Pulsatile Lutrelef delivery by minipump in Gnrh::Cre; iBot sensitive (overweight) female mice; assay type: in vivo; details: sensitive females
[2] = Pulsatile Lutrelef infusion by subcutaneous programmable mini-pump in obese and lean mice, food intake followed daily; assay type: in vivo; details: 14 days
Method: Adult lean and obese male mice were housed under specific pathogen-free conditions in a temperature-controlled room (21-22° C.) with a 12 h light/dark cycle. Animals were provided with ad libitum access to food and water. The body weight of the animals and their food intake were followed on a daily base. Animal studies were approved by the Institutional Ethics Committee for the Care and Use of Experimental Animals of the University of Lille; all experiments were performed in accordance with the guidelines for animal use specified by the European Union Council Directive of Sep. 22, 2010 (2010/63/EU). […] To restore a control/lean pattern of GnRH/LH release in obese mice, we next implanted subcutaneous programmable mini-pumps that delivered either Lutrelef (0.25 μg of GnRH per pulse over 10 min given every 3 h) or vehicle to the mice (i.e., the pattern of secretion found in lean mice). Lutrelef is a native GnRH peptide that is clinically used to successfully treat hypogonadotropic infertility (23,24). The regimen was given for 14-days, during which body weight and food intake were followed daily.

[3] = Pulsatile Lutrelef delivery by minipump in a Gnrh::Cre; iBot sensitive (overlean) male mouse; assay type: in vivo, mice; details: one sensitive male (n=1), one pulse every 3 h

With `CC(C)C[C@H](NC(=O)CNC(=O)[C@H](Cc1ccc(O)cc1)NC(=O)[C@H](CO)NC(=O)[C@H](Cc1c[nH]c2ccccc12)NC(=O)[C@H](Cc1cnc[nH]1)NC(=O)[C@@H]1CCC(=O)N1)C(=O)N[C@@H](CCCNC(=N)N)C(=O)N1CCC[C@H]1C(=O)NCC(N)=O` [Lutrelef] as the compound, how does the “substrate use from RER data” value ([1]; dark phase (feeding period) (FIG. 10B)) read?
Its value is “restores the use of carbohydrates during the dark phase”.

What about the bodyweight ([1]; one pulse every 2 h, 15 days (FIG. 10A)) of the same compound?
Its bodyweight is “decreased body weight”.

And the “respiratory exchange ratio (RER)” value ([1]; one pulse every 2 h, 15 days (FIGS. 10B, 10C))?
Its value is “normalised”.

What about the food intake ([1]; one pulse every 2 h, 15 days (FIGS. 10D, 10E)) of the same compound?
The food intake was “normalised”.

What about the “amount of food eaten” value ([2]; lean mice, same pulsatile regimen, compared with vehicle-infused littermates (FIG. 9)) of the same compound?
The value was “no observable effect”.

And the cumulative food intake ([2]; obese male mice, 0.25 μg of GnRH per pulse over 10 min every 3 h, compared with lean mice (FIG. 9))?
The cumulative food intake was “normalised their cumulative food intake to levels comparable with lean mice”.

And the bodyweight ([3]; 15 days (FIG. 11A))?
Its bodyweight is “fully rescues bodyweight”.

What about the “increase in food intake” value ([3]; 15 days (FIGS. 11B, 11C)) of the same compound?
The value was 15%.
